According to patent US7514076B2, “Antitumor agents” (priority 1997, dated 2009):

Legend:
[1] = Enzyme activity of PEG-XO: formation of uric acid from hypoxanthine (absorbance at 290 nm); assay type: biochemical; details: for XO activity: 50 μM hypoxanthine, 50 mM sodium phosphate buffer pH 7.4, room temperature; for enzyme activity compared with native XO: relative to native XO
Protocol: The enzyme activity was determined by quantifying the formation of uric acid from hypoxanthine by measuring the increase of absorbance at 290 nm, an absorption maximum of uric acid. The initial concentration of the substrate hypoxanthine was 50 μM. The enzyme reaction was carried out in 50 mM sodium phosphate buffer (pH 7.4) at room temperature. One unit of XO activity is defined as the velocity of the formation of 1 μmol of uric acid per min.

[2] = Time course of tumor accumulation of PEG-XO-high (XO activity in tumor homogenate, pterin substrate); assay type: in vivo, ddY mice
Protocol: The time course of the tumor accumulation of PEG-XO-high was examined by measuring the enzyme activity derived from PEG-XO-high in the tumor tissue. Tumor bearing mice were prepared as described above. PEG-XO-high (2 U/ml, 100 μl) was injected intravenously (i.v.) to the mice. After a given period, the tumor tissue was removed as described above. The tumor tissue was then homogenized with three volumes of 20 mM potassium phosphate buffer pH 7.6 which contained 2 mM ethylenediaminetetraacetic acid, 2 mM amidinophenylmethanesulfonyl fluoride, 10 mM dithiothreitol, 0.5 μg/ml of leupeptin. The homogenates were centrifuged at 10,000 g for 20 min, and each supernatant was applied to a FPLC system with a Superose 6 HR 10/30 column similar to the previous section. The enzyme activity of the PEG-XO-high fraction was determined fluorometrically, i.e., the formation of fluorescent isoxanthopterin from pterin was measured with an excitation at 345 nm and an emission at 390 nm, in which hypoxanthine was replaced with pterin as substrate. The quantification was made using the calibration curve of the authentic isoxanthopterin (Aldrich Chemical, Milwaukee, Wis.).

[3] = system: S-180 solid tumor; assay: Antitumor activity of PEG-XO in vivo with hypoxanthine; design: species or system ddY mice; details: for suppression of the tumor growth: FIG. 1
Protocol: When the tumors became palpable (5-7 mm in diameter), usually 7 days after implantation, the treatment was resumed.
Hypoxanthine (13.3 mg/kg) was injected intraperitoneally six times, each time more than 6 hrs after the last time, as indicated by asterisks (*) in the FIG. 1 to 3.

[4] = system: S180 solid tumor; assay: Antitumor effect of PEG-DAO on S180 solid tumor model; assay type: in vivo, ddY mice; details: 1.5 U i.v. day 7, D-proline 0.5 mmol i.p. 2 and 4 hrs after; FIG. 10
Protocol: S180 cells (2×10^6 cells) were inoculated subcutaneously to ddY mice. Seven days after tumor inoculation, mice were injected i.v. with 1.5 U of native DAO or PEG-DAO followed by D-proline 0.5 mmol, i.p. (2 and 4 hrs after DAO administration).
In the FIG. 10, —●— indicates the result of treated mice by administration of PEG-DAO by […]. injection with D-proline, and —▴— indicates the result of administration of native DAO similarly with D-proline. —◯— indicates the result of control mice without any drug treatment Data are means (n=4-8)±SE (standard error). […] Thus, in vivo activity of PEG-DAO is excellent.

[5] = Systemic side effect of PEG-XO-high/hypoxanthine; assay type: in vivo; details: PEG-XO/hypoxanthine therapy
[6] = Bray and Swann 1972; confirmed by the inventors; cited from earlier work
[7] = 2 administrations 0.6 U/mouse, hypoxanthine 13.3 mg/kg i.p.
[8] = 15 days after tumor inoculation, 2 times 0.6 U/mouse i.v. (day 7, 9), hypoxanthine 13.3 mg/kg i.p. six times

| Substance | XO activity [1] | enzyme activity compared with native XO [1] | suppression of the tumor growth [3, 7] | weight of tumor [3, 8] | also measured |
| --- | --- | --- | --- | --- | --- |
| PEG-XO-high: Xanthine oxidase conjugated with succinimide activated-PEG (Mw 5000), 49% of amino groups modified | 1.15 U/mg protein | 54% | significant (p<0.05) suppression of the tumor growth | 0.22 ± 0.05 g | XO activity in S-180 solid tumor tissue after injection ([2]; 0.2 U/mouse i.v., 24 hrs, FIG. 6B): a new large peak of XO activity was observed; PEG-XO-high activity in tumor over time ([2]; FIG. 7): increased in a time dependent manner; antitumor activity ([3]; 3 administrations 0.6 U/mouse, hypoxanthine 13.3 mg/kg i.p., FIG. 2): remarkable antitumor activity; weight of tumor ([3]; 13 days after tumor inoculation, 3 times 0.6 U/mouse i.v. (day 7, 8, 9), hypoxanthine 13.3 mg/kg i.p. 6 times): 0.13 ± 0.08 g; inhibition of tumor growth ([3]; day 13, 3 administrations 0.6 U/mouse, hypoxanthine 13.3 mg/kg i.p.): 77%; inhibition of the tumor growth ([3]; day 15, 2 administrations 0.6 U/mouse, hypoxanthine 13.3 mg/kg i.p.): 39% |
| D-amino acid oxidase [native DAO] | – | – | – | – | suppression of the tumor growth [4]: no significant reduction of the tumor growth |
| PEG-XO-low: Xanthine oxidase conjugated with succinimide activated-PEG (Mw 5000), 17% of amino groups modified | 2.40 U/mg protein | 110% | – | – | – |
| PEG-XO: Chemically conjugated XO with poly(ethylene glycol); generic term, in vivo work used PEG-XO-high | – | – | – | – | hematotoxicity or liver toxicity [5]: No serious or significant hematotoxicity or liver toxicity |
| xanthine oxidase [Native-XO] | 2.12 U/mg protein | – | no significant reduction of the tumor growth | 0.31 ± 0.03 g | antitumor effect of native XO (literature) [6]: insignificant |
